The supplement of paper PMC11451515

Tested on: P12-Ichikawa
Assay: cell viability relative to DMSO control; higher = less cytotoxic
Conditions: 48 h
How it was run: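 Viability values are per-plate percentages of DMSO wells, with background from cell-free wells. Library compounds in DMSO were pin-dosed, in an 11-point threefold series from 47 μM to 0.79 nM, onto NOMO1 or SEM (500 cells/well) or P12-Ichikawa (1000 cells/well) leukemia cells in 1536-well plates (5 μl). Those cells had been adapted for at least four passages in each medium, and CellTiter-Glo One luminescence was read after 48 h at 37°C.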

[1] = HPLM + 10% dialyzed FBS, 0.000781 µM
[2] = HPLM + 10% dialyzed FBS, 0.00234 µM
[3] = HPLM + 10% dialyzed FBS, 0.00702 µM
[4] = HPLM + 10% dialyzed FBS, 0.0211 µM
[5] = HPLM + 10% dialyzed FBS, 0.0632 µM
[6] = HPLM + 10% dialyzed FBS, 0.19 µM
[7] = HPLM + 10% dialyzed FBS, 0.569 µM
[8] = HPLM + 10% dialyzed FBS, 1.71 µM
[9] = HPLM + 10% dialyzed FBS, 5.12 µM
[10] = HPLM + 10% dialyzed FBS, 15.4 µM
[11] = HPLM + 10% dialyzed FBS, 46.1 µM
[12] = RPMI 5 mM glucose + 10% FBS, 0.000781 µM
[13] = RPMI 5 mM glucose + 10% FBS, 0.00234 µM
[14] = RPMI 5 mM glucose + 10% FBS, 0.00702 µM
[15] = RPMI 5 mM glucose + 10% FBS, 0.0211 µM
[16] = RPMI 5 mM glucose + 10% FBS, 0.0632 µM
[17] = RPMI 5 mM glucose + 10% FBS, 0.19 µM
[18] = RPMI 5 mM glucose + 10% FBS, 0.569 µM
[19] = RPMI 5 mM glucose + 10% FBS, 1.71 µM
[20] = RPMI 5 mM glucose + 10% FBS, 5.12 µM
[21] = RPMI 5 mM glucose + 10% FBS, 15.4 µM
[22] = RPMI 5 mM glucose + 10% FBS, 46.1 µM
[23] = RPMI 5 mM glucose + 10% dialyzed FBS, 0.000781 µM
[24] = RPMI 5 mM glucose + 10% dialyzed FBS, 0.00234 µM
[25] = RPMI 5 mM glucose + 10% dialyzed FBS, 0.00702 µM
[26] = RPMI 5 mM glucose + 10% dialyzed FBS, 0.0211 µM
[27] = RPMI 5 mM glucose + 10% dialyzed FBS, 0.0632 µM
[28] = RPMI 5 mM glucose + 10% dialyzed FBS, 0.19 µM
[29] = RPMI 5 mM glucose + 10% dialyzed FBS, 0.569 µM
[30] = RPMI 5 mM glucose + 10% dialyzed FBS, 1.71 µM
[31] = RPMI 5 mM glucose + 10% dialyzed FBS, 5.12 µM
[32] = RPMI 5 mM glucose + 10% dialyzed FBS, 15.4 µM
[33] = RPMI 5 mM glucose + 10% dialyzed FBS, 46.1 µM

CC\12CCC(=O)\C=C1CCC3C2CCC4(C)C3CCC4(O)C#C (stereo not drawn)
cell viability [1]: 102%
cell viability [2]: 101%
cell viability [3]: 99.2%
cell viability [4]: 93.9%
cell viability [5]: 97.9%
cell viability [6]: 93.4%
cell viability [7]: 92%
cell viability [8]: 92.3%
cell viability [9]: 94.2%
cell viability [10]: 80.6%
cell viability [11]: 92.3%
cell viability [12]: 99.3%
cell viability [13]: 102%
cell viability [14]: 97.7%
cell viability [15]: 100%
cell viability [16]: 96.8%
cell viability [17]: 97.1%
cell viability [18]: 93.1%
cell viability [19]: 96.6%
cell viability [20]: 85.7%
cell viability [21]: 81.8%
cell viability [22]: 90.3%
cell viability [23]: 83.5%
cell viability [24]: 85.6%
cell viability [25]: 88.9%
cell viability [26]: 91.1%
cell viability [27]: 95.7%
cell viability [28]: 93.6%
cell viability [29]: 91.1%
cell viability [30]: 88.6%
cell viability [31]: 85.4%
cell viability [32]: 84.2%
cell viability [33]: 83%

CN1CCN(c2c(F)cc3c(=O)c(C(=O)O)cn(CCF)c3c2F)CC1
cell viability [1]: 99.8%
cell viability [2]: 101%
cell viability [3]: 106%
cell viability [4]: 112%
cell viability [5]: 112%
cell viability [6]: 111%
cell viability [7]: 111%
cell viability [8]: 115%
cell viability [9]: 121%
cell viability [10]: 120%
cell viability [11]: 108%
cell viability [12]: 101%
cell viability [13]: 104%
cell viability [14]: 95.5%
cell viability [15]: 108%
cell viability [16]: 109%
cell viability [17]: 121%
cell viability [18]: 107%
cell viability [19]: 108%
cell viability [20]: 103%
cell viability [21]: 112%
cell viability [22]: 111%
cell viability [23]: 95.9%
cell viability [24]: 104%
cell viability [25]: 110%
cell viability [26]: 107%
cell viability [27]: 110%
cell viability [28]: 107%
cell viability [29]: 110%
cell viability [30]: 108%
cell viability [31]: 119%
cell viability [32]: 115%
cell viability [33]: 116%

CCOC(=O)[C@@]1(CCCCCCOc2ccc(Cl)cc2)CO1
cell viability [1]: 113%
cell viability [2]: 108%
cell viability [3]: 117%
cell viability [4]: 114%
cell viability [5]: 112%
cell viability [6]: 113%
cell viability [7]: 111%
cell viability [8]: 105%
cell viability [9]: 105%
cell viability [10]: 95.2%
cell viability [11]: 7.68%
cell viability [12]: 108%
cell viability [13]: 115%
cell viability [14]: 114%
cell viability [15]: 117%
cell viability [16]: 118%
cell viability [17]: 111%
cell viability [18]: 107%
cell viability [19]: 110%
cell viability [20]: 115%
cell viability [21]: 104%
cell viability [22]: 12.1%
cell viability [23]: 121%
cell viability [24]: 123%
cell viability [25]: 125%
cell viability [26]: 122%
cell viability [27]: 114%
cell viability [28]: 111%
cell viability [29]: 116%
cell viability [30]: 107%
cell viability [31]: 113%
cell viability [32]: 107%
cell viability [33]: 20.8%

O=C(CCCCCCC(=O)Nc1ccc([C@H]2O[C@@H](CSc3nc(-c4ccccc4)c(-c4ccccc4)o3)C[C@@H](c3ccc(CO)cc3)O2)cc1)NO
cell viability [12]: 118%
cell viability [13]: 122%
cell viability [14]: 134%
cell viability [15]: 123%
cell viability [16]: 136%
cell viability [17]: 116%
cell viability [18]: 115%
cell viability [19]: 114%
cell viability [20]: 49.9%
cell viability [21]: 4.95%
cell viability [22]: 3.26%

C[C@]12Cc3cn[nH]c3C[C@@H]1CC[C@@H]1[C@@H]2CC[C@@]2(C)[C@H]1CC[C@]2(C)O
cell viability [1]: 105%
cell viability [2]: 116%
cell viability [3]: 113%
cell viability [4]: 113%
cell viability [5]: 125%
cell viability [6]: 110%
cell viability [7]: 98.1%
cell viability [8]: 107%
cell viability [9]: 101%
cell viability [10]: 120%
cell viability [11]: 103%
cell viability [12]: 108%
cell viability [13]: 64.2%
cell viability [14]: 123%
cell viability [15]: 112%
cell viability [16]: 120%
cell viability [17]: 109%
cell viability [18]: 102%
cell viability [19]: 106%
cell viability [20]: 113%
cell viability [21]: 110%
cell viability [22]: 93.7%
cell viability [23]: 97.4%
cell viability [24]: 112%
cell viability [25]: 111%
cell viability [26]: 97.2%
cell viability [27]: 106%
cell viability [28]: 111%
cell viability [29]: 105%
cell viability [30]: 99.6%
cell viability [31]: 96.9%
cell viability [32]: 97.5%
cell viability [33]: 93.1%

O=C(CS(=O)Cc1ccco1)NC/C=C\COc1cc(CN2CCCCC2)ccn1 (stereo not drawn)
cell viability [1]: 90.8%
cell viability [2]: 98.6%
cell viability [3]: 100%
cell viability [4]: 98%
cell viability [5]: 101%
cell viability [6]: 102%
cell viability [7]: 107%
cell viability [8]: 104%
cell viability [9]: 107%
cell viability [10]: 112%
cell viability [11]: 100%
cell viability [12]: 87.7%
cell viability [13]: 88%
cell viability [14]: 93.3%
cell viability [15]: 99.8%
cell viability [16]: 104%
cell viability [17]: 98.7%
cell viability [19]: 96.4%
cell viability [20]: 109%
cell viability [21]: 94.4%
cell viability [22]: 109%
cell viability [23]: 78.9%
cell viability [24]: 87.4%
cell viability [25]: 87.2%
cell viability [26]: 97.4%
cell viability [27]: 101%
cell viability [28]: 94.4%
cell viability [29]: 95.9%
cell viability [30]: 92.3%
cell viability [31]: 93.2%
cell viability [32]: 105%
cell viability [33]: 99.3%

COC(=O)Nc1nc2cc(C(=O)c3ccc(F)cc3)ccc2[nH]1
cell viability [1]: 106%
cell viability [2]: 106%
cell viability [3]: 100%
cell viability [4]: 106%
cell viability [5]: 101%
cell viability [6]: 104%
cell viability [7]: 78.2%
cell viability [8]: 42.1%
cell viability [9]: 23%
cell viability [10]: 60.6%
cell viability [11]: 40.8%
cell viability [12]: 97%
cell viability [13]: 99.2%
cell viability [14]: 101%
cell viability [15]: 99.1%
cell viability [16]: 95.2%
cell viability [17]: 92.7%
cell viability [18]: 81.8%
cell viability [19]: 47.2%
cell viability [20]: 26.6%
cell viability [21]: 74.2%
cell viability [22]: 50%
cell viability [23]: 95.5%
cell viability [24]: 94.6%
cell viability [25]: 92.9%
cell viability [26]: 96.4%
cell viability [27]: 103%
cell viability [28]: 91.1%
cell viability [29]: 82%
cell viability [30]: 49.3%
cell viability [31]: 33.9%
cell viability [32]: 73.9%
cell viability [33]: 76.7%
